Measurements taken from patent publication US8871288B2, “Aromatic neomenthylamides as flavoring substances” (Symrise AG, priority 2007, dated 2014).

Legend:
[1] = Flavor impression of the individual compounds; format: in vivo; conditions: tasting of the compound as such
[2] = cited from earlier work; for sensorial impression: prior art (US 2004/0202760, US 2004/0202619, US 2006/057268, 2006/068071); for effect in the oral cavity: known naturally occurring alkamides
[3] = Flavor comparison in American beef bouillon base with MSG, panel of trained testers (FIG. 1); format: in vivo; conditions: 5 ppm of 1:1 mixture in American beef bouillon base vs base with 0.05% by weight MSG
Method: This is also shown by the spider diagram which is appended as FIG. 1 and in which an American beef bouillon as a base is compared (i) to a base of the type to which 5 ppm of a 1:1 mixture of benzo[1,3]dioxol-5-carboxylic acid ((1S,2S,5R)-2-isopropyl-5-methylcyclohexyl)amide (3) and benzo[1,3]dioxol-5-carboxylic acid ((1R,2R,5S)-2-isopropyl-5-methylcyclohexyl)amide (4) are added and (ii) to a base of the type to which 0.05% by weight of MSG (sodium glutamate) is added.
The flavor of a 0.5% American beef extract as a base (solid, light line) was compared, based on a tasting performed by a panel of trained testers, with the flavor firstly of a base of this type to which 5 ppm of a mixture of benzo[1,3]dioxol-5-carboxylic acid ((1S,2S,5R)-2-isopropyl-5-methylcyclohexyl)amide (3) and benzo[1,3]dioxol-5-carboxylic acid ((1R,2R,5S)-2-isopropyl-5-methylcyclohexyl)amide (4) were added (solid, dark line), and secondly of a base of this type to which 0.05% by weight of MSG was added (dotted line).
The testers judged the […] of the specified types of flavor in each case by awarding scores on a scale of from 0 (no corresponding flavor) to 6 (very strong corresponding flavor). The average values of the respective scores are shown.

[4] = Panel tasting, green tea drink (Application Example 11); format: in vivo; conditions: 0.004% by weight of a 1% solution in propylene glycol in green tea drink, sterilized at 118° C.
Method: The green tea concentrate is mixed with a 1% solution of a 1:1 mixture of the compounds (3)+(4) in propylene glycol. Afterwards, demineralized water is poured in and the mixture is again thoroughly stirred. Then the product is filtered, packed ready for consumption and sterilized at 118° C.

Compound: COC(=O)c1ccc(C(=O)N[C@H]2C[C@H](C)CC[C@H]2C(C)C)cc1 [(1), N-((1S,2S,5R)-2-isopropyl-5-methylcyclohexyl)terephthalic acid methyl ester]
- flavor impression [1]: umami flavor without very bitter accompanying notes

Compound: COC(=O)c1ccc(C(=O)N[C@@H]2C[C@@H](C)CC[C@@H]2C(C)C)cc1 [(2), N-((1R,2R,5S)-2-isopropyl-5-methylcyclohexyl)terephthalic acid methyl ester]
- flavor impression [1]: umami flavor without very bitter accompanying notes

Compound: CC(C)[C@@H]1CC[C@@H](C)C[C@@H]1NC(=O)c1ccc2c(c1)OCO2 [(3), benzo[1,3]dioxol-5-carboxylic acid ((1S,2S,5R)-2-isopropyl-5-methylcyclohexyl)amide]
- flavor impression [1]: very strong umami flavor

Compound: CC(C)[C@H]1CC[C@H](C)C[C@H]1NC(=O)c1ccc2c(c1)OCO2 [(4), benzo[1,3]dioxol-5-carboxylic acid ((1R,2R,5S)-2-isopropyl-5-methylcyclohexyl)amide]
- flavor impression [1]: very strong umami flavor

Compound: CC(C)[C@@H]1CC[C@@H](C)C[C@@H]1NC(=O)Cc1ccc2c(c1)OCO2 [(5), 2-benzo[1,3]dioxol-5-yl-N-((1S,2S,5R)-2-isopropyl-5-methylcyclohexyl)acetamide]
- flavor impression [1]: in addition to an umami flavor, a slightly salty note

Compound: CC(C)[C@H]1CC[C@H](C)C[C@H]1NC(=O)Cc1ccc2c(c1)OCO2 [(6), 2-benzo[1,3]dioxol-5-yl-N-((1R,2R,5S)-2-isopropyl-5-methylcyclohexyl)acetamide]
- flavor impression [1]: in addition to an umami flavor, a slightly salty note

Compound: CC(C)=CCCC(C)=CCNC(=O)C1CC1 [N-3,7-dimethyl-2,6-octadienyl cyclopropylcarboxamide]
- sensorial impression [2]: salt and umami intensifier

Compound: CC/C=C\CC/C=C/C(=O)NC1CC1 [N-cyclopropyl-E2,Z6-nonadienamide]
- sensorial impression [2]: MSG-like effect

Compound: CCCCC/C=C\CC/C=C/C(=O)NCC [N-ethyl-E2,Z6-dodecadienamide]
- sensorial impression [2]: MSG-like effect

Compound: CC/C=C\CC/C=C/C(=O)NCC [N-ethyl-E2,Z6-nonadienamide]
- sensorial impression [2]: MSG-like effect

Compound: CCCCC/C=C/C=C/C(=O)NCC(C)C [pellitorine]
- effect in the oral cavity [2]: a salivatory and tingling effect, a long-lasting and numbing effect in the oral cavity

Compound: C/C=C/C=C\CC/C=C/C(=O)NCC(C)C [spilanthol]
- effect in the oral cavity [2]: a salivatory and tingling effect, a long-lasting and numbing effect in the oral cavity

Compound: Benzo[1,3]dioxole-5-carboxylic acid((1S,2S,5R)-2-isopropyl-5-methylcyclohexyl)amide (3)/benzo[1,3]dioxole-5-carboxylic acid((1R,2R,5S)-2-isopropyl-5-methylcyclohexyl)amide (4) [1:1 mixture of the compounds (3)+(4)]
- flavor compared to other umami-tasting compounds and to sodium glutamate (MSG) [3]: clear umami flavor which is very similar to sodium glutamate (MSG)
- taste compared to the non-aromatized green tea base [4]: clearly preferable
